Reference: US10722479B2, “Dimethoxyphenyl inhibitors of vesicular monoamine transporter 2” (AUSPEX PHARMACEUTICALS, INC., priority 2015, dated 2020)

Assay: In vitro liver microsomal stability assay
Conditions: human liver microsomes 0.5 mg per mL, NADPH 2 mM, pH 7.4, 1 uM compound, 37° C.; relative to d0 (Example 1)
Protocol: In Vitro Liver Microsomal Stability Assay
Human liver microsomal stability assays were conducted at 0.5 mg per mL liver microsome protein with NADPH (2 mM, pH 7.4).
Reactions were initiated with the addition of NADPH cofactor and were stopped at 0, 5, 15, 20 or 30 min after cofactor addition with stop reagent, acetonitrile. After quenching, plates containing samples were vibrated for 10 min (600 rpm/min) and then centrifuged at 5594 g for 15 min. Supernatant fractions were analyzed by LC-MS/MS to determine the percent remaining and estimate the degradation half-life of the test compounds.

Compound	Clearance % change over d0 [%]	Half-life % change over d0 [%]
[2H]C([2H])([2H])Oc1ccc(CCNCC(O)COc2cccc(C([2H])([2H])[2H])c2)cc1OC([2H])([2H])[2H] (stereo not shown) [Example 4, [2-[3,4-bis(^2H6)methoxyphenyl]ethyl]([2-hydroxy-3-[3-(^2H3)methylphenoxy]propyl])amine]	−21.15	26.83
[2H]C([2H])([2H])Oc1ccc(CCNCC(O)COc2cccc(C)c2)cc1OC([2H])([2H])[2H] (stereo not shown) [Example 2, [2-[3,4-bis(^2H6)methoxyphenyl]ethyl][2-hydroxy-3-(3-methylphenoxy)propyl]amine]	1.68	−1.65
COc1ccc(CCNCC(O)COc2cccc(C)c2)cc1OC (stereo not shown) [Example 1, [2-(3,4-dimethoxyphenyl)ethyl][2-hydroxy-3-(3-methylphenoxy)propyl]amine, reference compound]	0.00	0.00
[2H]C([2H])([2H])Oc1ccc(CCNC([2H])([2H])C([2H])(O)C([2H])([2H])Oc2cccc(C)c2)cc1OC([2H])([2H])[2H] (stereo not shown) [Example 5, 1-([2-[3,4-bis(^2H6)methoxyphenyl]ethyl]amino)-3-(3-methylphenoxy)(^2H5) propan-2-ol]	0.85	−0.84
[2H]C([2H])([2H])c1cccc(OCC(O)CNCCc2ccc(OC)c(OC)c2)c1 (stereo not shown) [Example 3, [2-(3,4-dimethoxyphenyl)ethyl]([2-hydroxy-3-[3-(2H3)methylphenoxy]propyl])amine]	−4.71	4.95
